System: Escherichia coli (Gram-negative bacteria)
Assay: Antibacterial test of silver particles-2 (bacteria count in tube 1 over time)
Type: cell-based
Procedure: A test similar to that in <5. Antibacterial test of silver particles-1> was carried out with use of Escherichia coli (Gram-negative bacteria), which is one of model organisms and by which bacteria are typified. Note that the test was carried out by a method similar to that in <5. Antibacterial test of silver particles-1>, except that a kind of the bacteria used in the test was changed. Therefore, the method of the test will not be described here, and only results of the test will be described.
FIG. 10 illustrates results of the test carried out with use of “1 mM CDT-Ag,” “5 mM CDT-Ag,” and “10 mM CDT-Ag.” More specifically, FIG. 10 illustrates results of, “0 (zero) h,” “0.5 h,” “1 (one) h,” and “2 h” after the silver particles were mixed with the bacteria, (i) taking out an LB culture medium from each of tubes 1 through 8 stored in an incubator and (ii) carrying out an operation K), that is, a result of incubating the bacteria at 37° C. for 24 hours by storing a petri dish, prepared in the operation K), in the incubator.

O=C(O)CCCCCCCCCCS [Free CDT, 10-carboxy-1-decanthiol]
bacteria count in the tube 1 (count at 0 h = 1) (0 h (set to 1 by assumption)): 1 | bacteria count in the tube 1 (count at 0 h = 1) (0.5 h after mixing): 1 | bacteria count in the tube 1 (count at 0 h = 1) (1 h after mixing): 1 | bacteria count in the tube 1 (count at 0 h = 1) (2 h after mixing): 1 | antibacterial activity (in words, from FIG. 10 and Table 3): did not have antibacterial activity
